ChEMBL document CHEMBL5303304, “EUbOPEN Chemogenomics Library - IncuCyte” (2023)

How the values were obtained:
Assay type in all cases: toxicity, cell-based
HEK-293T = assay: Incucyte cell viability with HEK293T; conditions: human, 10 µM, compound concentration 10 uM
Fibroblast = assay: Incucyte cell viability with human fibroblast; conditions: 10 µM, compound concentration 10 uM
U2OS = assay: Incucyte cell viability with U2OS; conditions: human, 10 µM, compound concentration 10 uM
Also: unitless GR value; below 1 slowed growth and below 0 cell loss.

SMILES | Growth Rate (HEK-293T; 0 h, replicate number 1) | Growth Rate (HEK-293T; 0 h, replicate number 2) | Growth Rate (HEK-293T; 12 h, replicate number 2) | Growth Rate (HEK-293T; 18 h, replicate number 2) | Growth Rate (HEK-293T; 24 h, replicate number 2) | Growth Rate (Fibroblast; 0 h, replicate number 1) | Growth Rate (Fibroblast; 0 h, replicate number 2) | Growth Rate (Fibroblast; 6 h, replicate number 1) | Growth Rate (Fibroblast; 6 h, replicate number 2) | Growth Rate (Fibroblast; 12 h, replicate number 1) | Growth Rate (Fibroblast; 12 h, replicate number 2) | Growth Rate (Fibroblast; 24 h, replicate number 2) | Growth Rate (U2OS; 18 h, replicate number 1) | Growth Rate (U2OS; 18 h, replicate number 2) | Growth Rate (U2OS; 24 h, replicate number 1) | Growth Rate (U2OS; 24 h, replicate number 2) | Growth Rate (U2OS; 6 h, replicate number 1) | Growth Rate (U2OS; 6 h, replicate number 2) | Growth Rate (U2OS; 12 h, replicate number 1) | Growth Rate (U2OS; 12 h, replicate number 2) | other results
NC(=O)c1cc(-c2ccnc(NC3CCCCC3)c2)nc(N2CCNCC2)c1 | -0.55 | -0.65 | 0.31 | 0.26 | 0.44 | -0.81 | 0.79 | 0.63 | -0.77 | -1 | 0.39 | 0.36 | 0.84 | 0.9 | 0.61 | 0.72 |  |  |  |  | Growth Rate (HEK-293T; 12 h, replicate number 1): 0.54; Growth Rate (HEK-293T; 18 h, replicate number 1): 0.8; Growth Rate (Fibroblast; 18 h, replicate number 2): 0.65
NC(=O)c1ccc2[nH]c(-c3ccc(Oc4ccc(Cl)cc4)cc3)nc2c1 | 0.58 |  | 0.93 |  | 0.98 | 0.02 | -0.68 | -0.26 |  | -1 |  |  | 0.72 | 0.83 | 0.75 | 0.82 | -0.28 | 0.74 | 0.47 | 0.71 | Growth Rate (HEK-293T; 6 h, replicate number 1): 0.6; Growth Rate (HEK-293T; 6 h, replicate number 2): 0.12; Growth Rate (U2OS; 0 h, replicate number 2): -0.59
Cc1ccc(C)c(OCCCC(C)(C)C(=O)O[C@@H]2O[C@H](C(=O)O)[C@@H](O)[C@H](O)[C@H]2O)c1 | 0.57 |  | 0.64 | 0.87 | 0.91 | 0.21 |  | 0.96 | -0.9 | -1 | 0.42 | 0.89 | 0.89 |  | 0.9 |  | 0.4 | 0.89 | 0.78 | 0.99 | Growth Rate (HEK-293T; 6 h, replicate number 2): 0.49; Growth Rate (Fibroblast; 18 h, replicate number 1): -0.29; Growth Rate (Fibroblast; 24 h, replicate number 1): 0.68; Growth Rate (U2OS; 0 h, replicate number 1): 0.28; Growth Rate (U2OS; 0 h, replicate number 2): -0.96
NC1=NC(=O)/C(=C2\CCNC(=O)c3[nH]c4ccccc4c32)N1 | 0.81 | 0.25 |  |  |  | 0.39 |  |  |  | -1 |  |  | 0.74 | 0.65 | 0.78 |  | 0.43 | 0.45 | 0.63 | 0.7 | Growth Rate (Fibroblast; 18 h, replicate number 1): -0.07
